Like-named read-outs stand apart in the source and are kept apart here.
How the values were obtained:
[1] = humans, cited from earlier work
[2] = cited from earlier work
[3] = Tissue distribution after intravenous administration in rats; assay type: in vivo; conditions: Sprague-Dawley, rat; every tissue except brain, mesentery and fat; 30 min and 2 h after iv 10 mg/kg; read-out: Tissue-to-plasma (T/P) ratio
Procedure: Rats were handled and processed as described previously [10]. […] After 30 min and 2 h (n = 4 each), as much blood as possible was collected from the carotid artery. Blood samples were immediately centrifuged, and plasma was collected. The rats were sacrificed by cervical dislocation, approximately 1 g of each brain, fat, heart, kidney, large intestine, liver, lung, mesentery, muscle, small intestine, spleen, and stomach was removed, rinsed with phosphate-buffered solution (pH 7.4), and blotted dry with paper towels to remove any remaining blood. Each tissue sample was added to four volumes of homogenizing buffer, homogenized using a tissue homogenizer (T25 Ultra-Turrax, IKA Labortechnik, Staufen, Germany) and centrifuged at 8000 × g for 10 min.

[4] = Hepatic first-pass effect: 30-min intravenous vs intraportal infusion in rats; assay type: in vivo, Sprague-Dawley rats; conditions: for AUC / CL renal / MRT / clearance / half-life / Vd: Sprague-Dawley, rat, plasma; for half-life: read-out: Terminal half-life; for Vd: read-out: Vss
Procedure: The carotid artery and jugular vein were handled as described previously. In addition, the vein from the cecum was cannulated and the cannula was pushed forward about 4 cm toward the liver through the portal vein to minimize the damage from blood flowing into the portal vein [13, 14]. […] Blood samples were collected from the carotid artery at times 0, 15, 30 (at the end of the infusion), 31, 35, 45, 60, 90, 150, 210, 270, 390, 510, and 630 min, with all sample collection and processing procedures identical to those described above.
(§1) Pharmacokinetic parameters, including AUC, apparent volume of distribution at steady state (Vss), mean residence time (MRT), and time-averaged total body (CL), renal (CLR), and nonrenal (CLNR) clearances, were calculated by noncompartmental analysis (WinNonlin, Pharsight Corporation, Mountain View, CA, USA) using standard methods. AUC values were calculated using the trapezoidal rule–extrapolation method. The peak plasma concentration (Cmax) and time to reach Cmax (Tmax) were obtained directly from the experimental data. The mean values of clearance, terminal half-life, and Vss were calculated using the harmonic mean method.

[5] = Gastric and intestinal first-pass effect: intraportal infusion, intraduodenal and intragastric instillation in rats; assay type: in vivo, Sprague-Dawley rats
Procedure: Rats were fasted overnight with free access to water. Cannulae were inserted into the carotid artery and the cecal vein [13, 14]. […] All sample collection and processing procedures were identical to those described above.
as §1

[6] = 30-min intraportal infusion, 10 mg/kg (n = 7)
[7] = 30-min intravenous infusion, 10 mg/kg
[8] = 30-min intraportal infusion, 10 mg/kg (n = 6)
[9] = Sprague-Dawley, rat, plasma, 10 mg/kg, 30-min intraportal infusion, 10 mg/kg (n = 6)
[10] = Sprague-Dawley, rat, plasma, 10 mg/kg, intraduodenal instillation
[11] = Sprague-Dawley, rat, plasma, po, 10 mg/kg, intragastric instillation
[12] = Sprague-Dawley, rat, plasma, 30-min intraportal infusion, 10 mg/kg (n = 6)

In the case of `C[C@@H]1CCN(C(=O)CC#N)C[C@@H]1N(C)c1ncnc2[nH]ccc12` [tofacitinib, 3-[(3R,4R)-4-methyl-3-[methyl-(7H-pyrrolo[2,3-day]pyrimidin-4-l)amino]piperidin-1-yl]-3-oxopropanenitril], the Terminal half-life [1] is listed as 192 min, the Volume of distribution [1] is listed as 87 L and the “Bound to plasma proteins” value ([1]; oral) is listed as 40%. For the same molecule, the “AUC of tofacitinib reduced in pretreated rats” value ([2]; pretreated with dexamethasone, inducer of CYP3A1/2) was 56%, the “AUC of tofacitinib greater in pretreated rats” value ([2]; pretreated with fluconazole, inhibitor of CYP2C11) was 39% and the “AUC of tofacitinib greater in pretreated rats” value ([2]; pretreated with ketoconazole, inhibitor of CYP3A1/2) was 46%. The “AUC of tofacitinib reduced in pretreated rats” value ([2]; pretreated with rifampin, inducer of CYP2C11) was 26%, the Kp [3] was > 1 and the “AUC after intraportal administration as % of that after intravenous administration” value ([4]; 10 mg/kg) was 58.0%. For the same molecule, the “CL faster after intraportal than intravenous administration” value ([4]; 10 mg/kg) was 67%, the “CLNR faster after intraportal than intravenous administration” value ([4]; 10 mg/kg) was 60% and the “Vss higher after intraportal than intravenous administration” value ([4]; 10 mg/kg) was 50%. The “Ae0–24 h” value [4, 6] was 10.7 ± 9.42 % of dose, the CLNR [4, 6] was 38.5 ± 10.4 mL/min/kg and the “Ae0–24 h” value [4, 7] was 12.5 ± 5.20 % of dose. For the same molecule, the CLNR [4, 7] was 24.0 ± 6.46 mL/min/kg, the AUC [4, 6] was 4030 ng·h/mL and the CL renal [4, 6] was 5 ± 4.69 mL/min/kg. The MRT [4, 6] was 59.6 min, the clearance [4, 6] was 43.8 ± 11 mL/min/kg and the half-life [4, 6] was 42.4 ± 10.4 min. The Vd [4, 6] was 2.55 ± 0.72 L/kg, the AUC [4, 7] was 6950 ng·h/mL and the CL renal [4, 7] was 2.34 ± 2.9 mL/min/kg. For the same molecule, the MRT [4, 7] was 67.5 min, the clearance [4, 7] was 26.3 ± 8.85 mL/min/kg and the half-life [4, 7] was 46.2 ± 12.5 min. For the same molecule, the Vd [4, 7] was 1.7 ± 0.737 L/kg, the “AUC after intraduodenal instillation as % of that after intraportal administration” value ([5]; 10 mg/kg) was 50.7% and the “Ae0–24 h” value [5, 8] was 5.82 ± 2.32 % of dose. For the same molecule, the CLNR [5, 8] was 38.3 ± 6.16 mL/min/kg, the “Oral dose absorbed into the systemic circulation” value ([5]; 50.7–21.3%, 10 mg/kg) was 29.4% and the CL renal [5, 9] was 2.44 ± 1.23 mL/min/kg. It also gave a Cmax [5, 9] of 5180 ± 586 ng/mL, a Tmax [5, 9] of 27.5 min and an AUC ([5]; Sprague-Dawley, rat, plasma, 10 mg/kg, 30-min intraportal infusion, 10 mg/kg (n = 6), fasted) of 4530 ng·h/mL. The AUC [5, 10] was 2300 ng·h/mL, the CL renal [5, 10] was 5.72 ± 2.62 mL/min/kg and the Cmax [5, 10] was 1550 ± 1930 ng/mL. It also gave a Tmax [5, 10] of 38.8 min, an AUC [5, 11] of 2230 ng·h/mL and a CL renal [5, 11] of 7.08 ± 2.91 mL/min/kg. It also gave a Cmax [5, 11] of 716 ± 255 ng/mL, a Tmax [5, 11] of 63.8 min and an MRT [5, 12] of 53 min. For the same molecule, the clearance [5, 12] was 38.4 ± 8.47 mL/min/kg, the half-life ([5]; Sprague-Dawley, rat, plasma, 30-min intraportal infusion, 10 mg/kg (n = 6), read-out: Terminal half-life) was 44.8 ± 14.2 min and the Vd ([5]; Sprague-Dawley, rat, plasma, 30-min intraportal infusion, 10 mg/kg (n = 6), read-out: Vss) was 1.9 ± 0.369 L/kg. The “Ae0–24 h” value ([5]; intraduodenal instillation, 10 mg/kg) was 8.30 ± 5.10 % of dose and the “Ae0–24 h” value ([5]; intragastric instillation, 10 mg/kg) was 8.90 ± 3.00 % of dose.
